Test results reported in patent US6492536B2, “Steroids, their use as medicaments, their preparation process, the intermediates of this process and the compositions containing them” (Aventis Pharma S.A., priority 1996, dated 2002).

Assays:
[1] = test system: Female Wistar rats; assay: Thymolytic activity (thymus weight in granuloma test); format: in vivo; conditions: rat, oral route, once a day for four days
Experimental: (§1) Granuloma Test—Thymolytic Activity
(§2) The anti-inflammatory activity was studied according to the standard granuloma test. The technique used is a modification of the method of Meier and Coll. (Experentia, 1950, 6, 469). Female Wistar rats, weighing 90 to 100 g, receive an implantation of two cotton pellets of 10 mg each under the skin of the thorax. The products are immediately administered by oral route, a the rate of once a day for four days. The animals are then sacrificed. The pellets surrounded by the granuloma tissue formed, are weighed in the fresh state, then after eighteen hours at 60° C. The weight of the granuloma is obtained by deduction of the initial weight of the cotton.
The thymuses are also removed and weighed in order to determine the thymolytic activity of the products.

[2] = test system: Male Wistar rats; assay: Retarded hypersensitivity test (M. Tuberculosis), immunosuppressive activity; format: in vivo; conditions: oral route from day 4 to 7, paw oedema 24 hours after antigen; for ED50: Mycobacterium tuberculosis, 4TO7, rat, read-out: Retarded hypersensitivity (M. Tuberculosis, rat) ED 50
Experimental: 3) Immunosuppressive Activity.
The immunosuppressive activity was studied according to the retarded hypersensitivity test described in the article by Hambleton et al. (Agents and Actions, […], 29, 328). Male Wistar rats weighing 150 to 160 g are sensitized on day 0 with a suspension of Mycobacterium Tuberculosis 4 mg/ml in parrafin oil by a sub-cutaneous injection at the base of the tail (0.1 ml/animal).
The products are administered by oral route from day 4 to 7.
On day 7, one hour after the last administration, the animals receive an injection of the soluble fraction of the antigen triggering the hypersensitivity reaction: 0.4 mg/rat in 0.2 ml by intraplantar route in a rear paw, the other receives the same quantity of solvent.
The oedema is measured 24 hours afterwards using an UGO BASIL plethysmometer from APELEX.
The activity of the products is evaluated by the percentage reduction in the increase of the injected paw relative to that of the control animals.

[3] = test system: Female Wistar rats; assay: Granuloma test (cotton pellets), anti-inflammatory activity; format: in vivo; conditions: rat, oral route, once a day for four days
Experimental: as §1, §2

[4] = test system: male mice; assay: Ear oedema test induced by croton oil; format: in vivo; conditions: applied to the ear, 6 hours
Experimental: Ear Oedema Test Induced by Croton Oil
The products have also been tested in the model of the ear oedema of mice using croton oil according to the method described in Tonelli et al. (Endocrinology, 1965, 77, 625-634). An ear oedema is induced in male mice weighing 18 to 22 g, by using croton oil (2% v/v) in a pyridine-water-ether solution 4:1:14.6 (by volume). The animals are sacrificed 6 hours later, the ears are removed and weighed. The difference in weight between the ear treated with croton oil and the contralateral ear (non-treated) allows 100% of the oedema to be determined. The products to be tested are dissolved in the solution of croton oil and applied to the ear.

[5] = test system: GRE-tk promoter; assay: Regulation of transcription in transfected Hela cells: transactivation (GRE-tk-CAT plasmid); format: cell-based; conditions: 24 hours, CAT ELISA
Experimental: (§3) The molecules according to the invention have been tested in models of HELA cells transfected with the GRE-tk-CAT plasmid (transactivation), or with the pColl-CAT plasmid (transrepression). (Cf. TEST 1)
(§4) I) Study of the regulation of transcription in transfected Hela cells.
(§5) Hela cells (ATCC ref: CCL-2) are distributed in a 6-well plate, in a nutritive medium with a density of 4×10^5 cells/ml, 24 hours before the transfection, and are incubated at 37° C. The transitory transfections are produced according to the precipitate method with calcium phosphate. In the case of the study of transactivation, the cells are transfected with 1 μg of GRE-tk-CAT plasmid, 1 μg of polyII β-GAL plasmid and KS plasmid (Stratagene), s.q.f. 5 μg. In the case of the study of transrepression, the cells are transfected with 3 μg of Coll (−517/+63) CAT plasmid, 250 ng of pSV-cjun plasmid, 1 μg of polyII β-GAL plasmid and KS plasmid (Stratagene), s.q.f. 5 μg. The precipitate is left in contact with the cells for 16 hours. These are then rinsed and covered with the nutritive medium containing different concentrations of Dexamethasone or the products to be studied (10^−9M, 10^−8M, 10^−7M, 10^−6M). 24 hours after the addition of the products, the cells are lysed in 250 μl of MOPS-NaCl-Triton X-100 buffer. The CAT is dosed in the cellular extracts using the ELISA Kit (Boehringer Mannheim).

[6] = test system: collagenase promoter; assay: Regulation of transcription in transfected Hela cells: transrepression (Coll (-517/+63) CAT plasmid); format: cell-based; conditions: 24 hours, CAT ELISA; for inhibition at 1 µM / inhibition at 0.1 µM / inhibition at 0.01 µM / inhibition at 0.001 µM: Homo sapiens
Experimental: as §3, §4, §5

Compound | Thymolysis ED 50 [1] [mg/kg/po] | ED50 [2] [mg/kg] | Granuloma ED 50 [3] [mg/kg/po] | Oedema using croton oil (mouse) ED 50 [4] [μg/ear] | Activation of GRE-tk (%) ([5]; 10^-6 M) | Activation of GRE-tk (%) ([5]; 10^-7 M) | Activation of GRE-tk (%) ([5]; 10^-8 M) | Activation of GRE-tk (%) ([5]; 10^-9 M) | inhibition at 1 µM ([6]; 10^-6 M) [%] | inhibition at 0.1 µM ([6]; 10^-7 M) [%] | inhibition at 0.01 µM ([6]; 10^-8 M) [%] | inhibition at 0.001 µM ([6]; 10^-9 M) [%] | Retarded hypersensitivity (M. Tuberculosis, rat) ED 50 [2] [mg/kg] | Inhibition of the Coll promoter (%) ([6]; 10^-6 M) | Inhibition of the Coll promoter (%) ([6]; 10^-7 M) | Inhibition of the Coll promoter (%) ([6]; 10^-8 M) | Inhibition of the Coll promoter (%) ([6]; 10^-9 M)
C[C@]12C=CC(=O)C=C1CC[C@@H]1[C@@H]2[C@@H](O)C[C@@]2(C)[C@H]1CC[C@]2(O)C(=O)CO [Prednisolone, reference compound] | 1.6 | 5 to 20 | 2.5 | 4 |  |  |  |  |  |  |  |  |  |  |  |  | 
C[C@@H]1C[C@H]2[C@@H]3CCC4=CC(=O)C=C[C@]4(C)[C@@]3(F)[C@@H](O)C[C@]2(C)[C@@]1(O)C(=O)CO [Dexamethasone, reference compound] | <0.05 | 0.05 | 0.1 | 1 | 98.82 +/− 1.18% | 89.48 +/− 2.26% | 53.38 +/− 2.65% | 7.34 +/− 2.57% | 93.1 | 96.6 | 87.6 | 42.2 |  |  |  |  | 
C[C@@H]1C[C@H]2[C@@H]3CCC4=CC(=O)C=C[C@]4(C)[C@@]3(F)[C@@H](O)C[C@]2(C)[C@H]1C(=O)CC#N [Example 2, 9α-fluoro-11β-hydroxy-16α-methyl-pregna-1,4-diene-3,20-dione-21-carbonitrile] | 2.5 | 1.5 | >7 | 2 | 16.92 +/− 3.55% | 10.45 +/− 4.33% | 1.34 +/− 1.33% | 0% | 75.6 | 81.3 | 36.2 | 20.6 |  |  |  |  | 
CSCC(=O)[C@H]1[C@H](C)C[C@H]2[C@@H]3CCC4=CC(=O)C=C[C@]4(C)[C@@]3(F)[C@@H](O)C[C@@]21C [Example 1, 9α-fluoro-11β-hydroxy-16α-methyl-21-thiomethyl-pregna-1,4-diene-3,20-dione] | 2.5 |  | 5 | 10 | 37.56 +/− 1.9% | 35.21 +/− 2.24% | 27.74 +/− 1.05% | 3.78 +/− 0.87% |  |  |  |  | 2.3 | 81.79 +/− 2.98% | 57.61 +/− 2.46% | 37.12 +/− 6.7% | 3.57 +/− 3.09%
